As a reminder, the efflux ratio is a quotient of directional permeabilities that is used to spot active efflux. One may read the AUC(0-t) as exposure summed from dosing to a finite time, without extrapolation to infinity. For orientation: Papp A→B means the apparent permeability from the apical to the basolateral side of a cell layer. The term half-life denotes the time needed for the level to fall by half in the phase considered. What is called Tmax is the time at which the peak concentration occurs. What is called Cmax is the highest concentration seen after dosing. Usually pEC50 stands for the negative decadic logarithm of the EC50, by convention in mol/L. Usually pIC50 stands for the negative decadic logarithm of the IC50, by convention in mol/L. Low values mean a large IC50, high ones a small IC50.

pEC50, pIC50: −log10 of the molar value.

Series [1] can be described thus: Efflux ratio of apparent permeability across basolateral to apical side over apical to basolateral side in human Caco-2 cells. Format: ADME, cell-based. On the technique in general: Caco-2 cells form a polarised layer with tight junctions and transporters.
Series [2] can be described thus: AUClast in Sprague-Dawley rat at 50 mg/kg, po measured upto 24 hrs by LC/MS-MS analysis. Conditions: in vivo. Format: ADME, organism-based.
Series [3] is described as follows: Apparent permeability across apical to basolateral side in human Caco-2 cells incubated for 2 hrs by LC-MS/MS analysis. Type of series: ADME, cell-based.
The nature of series [4]: Metabolic stability in rat liver microsomes assessed as half life measured upto 60 mins in presence of NADPH by LC/MS-MS analysis. Type of series: ADME, Microsome. In general terms: Liver microsomes are vesicles of endoplasmic reticulum, rich in cytochrome P450 enzymes.
Series [5] is described as follows: Tmax in Sprague-Dawley rat at 50 mg/kg, po measured upto 24 hrs by LC/MS-MS analysis. Type of series: ADME, organism-based. Conditions: in vivo.
Series [6] is described as follows: Metabolic stability in human liver microsomes assessed as half life measured upto 60 mins in presence of NADPH by LC/MS-MS analysis. Format: ADME, Microsome.
The nature of series [7]: Cmax in Sprague-Dawley rat at 10 mg/kg, po measured upto 24 hrs by LC/MS-MS analysis. Type of series: ADME, organism-based. Conditions: in vivo.
A short description of series [8]: Half-life in Sprague-Dawley rat at 50 mg/kg, po measured upto 24 hrs by LC/MS-MS analysis. Format: ADME, organism-based. Conditions: in vivo.
For series [9], the system named is SARS-CoV-2. The series can be described thus: microbe, parasite or virus in culture. Conditions: Severe acute respiratory syndrome coronavirus 2, Huh-7, 24 h.
Series [10] is described as follows: Half-life in Sprague-Dawley rat at 10 mg/kg, po measured upto 24 hrs by LC/MS-MS analysis. Conditions: in vivo. Format: ADME, organism-based.
Series [11] can be described thus: Tmax in Sprague-Dawley rat at 10 mg/kg, po measured upto 24 hrs by LC/MS-MS analysis. Format: ADME, organism-based. Conditions: in vivo.
The nature of series [12]: Cmax in Sprague-Dawley rat at 50 mg/kg, po measured upto 24 hrs by LC/MS-MS analysis. Format: ADME, organism-based. Conditions: in vivo.
Series [13] in a line: Stability of compound in FaSSGF at 10 uM measured after 4 hrs by LC-MS analysis. Type of series: physicochemical.
A short description of series [14]: AUClast in Sprague-Dawley rat at 10 mg/kg, po measured upto 24 hrs by LC/MS-MS analysis. Format: ADME, organism-based. Conditions: in vivo.
Series [15] deals with Replicase polyprotein 1ab (Severe acute respiratory syndrome coronavirus 2, UniProt P0DTD1). Description: Inhibition of SARS-CoV-2 3CL protease using Dabcyl-KTSAVLQSGFRKM-(Edans) as substrate preincubated for 30 mins followed by substrate addition and measured after 60 mins by fluorescence based microplate reader assay.

For the compound `CC1(C)CCOC(=O)[C@@H]2C[C@@H](C[C@@H](C#N)NC(=O)[C@@H]3[C@@H]4[C@H](CN3C(=O)[C@H]1NC(=O)C(F)(F)F)C4(C)C)C(=O)N2`, the efflux ratio in series [1] was 342. Moreover, the exposure AUC(0-t) at 24 h in series [2] was found to be 72.9 ng·h/mL; in series [14] it was 5.94 ng·h/mL. For the same compound, the Papp A→B at 2 h in [3] stood at 0.02 ×10⁻⁶ cm/s. Besides, the half-life was > 180 min in series [4], > 180 min in series [6], 28.3 min in series [8] and 20 min in [10]. Further, the results for the Tmax in [5] and in [11] were 20 min and 15 min, respectively. The Cmax in [7] amounted to 16.2 ng/mL; in series [12], 102 ng/mL. Moreover, the pEC50 in [9] was 7.59. Further, in series [13], the Stability result is “Stable”. Besides, the pIC50 in [15] was 7.92.
